19 compounds from patent US7960369B2, “Receptor function regulator” (Takeda Pharmaceutical Company Limited, priority 2002, dated 2011) can be followed below.

Assay [1] deals with T1, human-derived GPR40 (Homo sapiens, UniProt O14842).
T1 construct: expressed in transfected cells; host or cells: CHO-K1, transient transfection with lipofectamine
The assay can be described thus: Reactivity of fatty acid to human-derived GPR40, intracellular calcium by FLIPR in transfected CHO-K1 cells. Format: cell-based. To be noted: for response (increase in intracellular calcium concentration) of CHO-K1 cell expressing the GPR40 receptor: added at 10^−5M-10^−6M, FLIPR, control-vector cells showed no response; for activity in intracellular calcium ion mobilization assay using CHO cell expressing GPR40 (GPR40 agonistic activity): as stated in Experimental Example 6. As for the experimental part:
Unless specifically indicated, CHO-K1 cell line was cultured using Ham's F-12 medium (Invitrogen) containing 10% fetal calf serum (Invitrogen). The day before transfection, 4.5×10^5 per 10 cm^2 of cells were seeded, and incubated at 37° C. for not less than 15 hrs in a CO2 incubator adjusted to 5% CO2 concentration. The transfection was performed using a lipofectamine reagent (Invitrogen) and according to the reagent attached method. When a 6-well plate was used for a culture plate, transfection was performed in the following manner. First two 1.5 ml volume tubes were prepared, and 100 μl of Opti-MEM-I medium (Invitrogen) was dispensed. Then, […] of an expression vector was added to one tube and 6 μl of a lipofectamine reagent was added to the other tube. They were mixed and stood still at room temperature for 20 min. A mixed solution for transfection containing this solution and Opti-MEM-I medium (800 μl) was added to CHO-K1 cell previously washed with Opti-MEM-I medium, and incubated in a CO2 incubator for 6 hrs. The incubated cells were rinsed with PBS (Invitrogen), detached with 0.05% trypsin-EDTA solution (Invitrogen), recovered by centrifugation. The obtained cells were counted, diluted such that 5×10^4 cells were contained per 200 μl of the medium, dispensed to black walled 96-well plate (Costar) at 200 μl per well, incubated overnight in a CO2 incubator. Various test samples were added to CHO-K1 cells transiently expressing the receptor by the above-mentioned transfection step, and changes in the intracellular calcium concentration then was measured using FLIPR (Molecular Device). For measurement of changes in intracellular calcium concentration by FLIPR, the following pretreatment was applied. First, an assay buffer for adding fluorescence dye Fluo-3AM (DOJIN) to the cell, or washing the cell immediately before FLIPR assay was prepared. To a solution (hereinafter HBSS/HEPES solution) obtained by adding 20 ml of 1M HEPES (pH 7.4) (DOJIN) to 1000 ml of HBSS (Invitrogen) was added a solution (10 ml) obtained by dissolving probenecid (710 mg, Sigma) in 1N NaOH (5 ml) and adding and mixing with HBSS/HEPES solution (5 ml) and the obtained solution was used as an assay buffer. Then, Fluo-3AM (50 μg) was dissolved in 21 μl of DMSO (DOJIN), and an equal amount of 20% pluronic acid (Molecular Probes) was added. The mixture was added to an assay buffer (10.6 ml) supplemented with 105 μl of fetal calf serum to give a fluorescence dye solution. The medium of the CHO-KL cell after transfection treatment was removed, a fluorescence dye solution was immediately dispensed at 100 μl per well and incubated in a CO2 incubator for 1 hr to incorporate the fluorescence dye into the cell. The incubated cells were washed with the above-mentioned assay buffer and set on FLIPR. The test sample to be added to receptor expressing CHO-KL cell was prepared using the assay buffer and simultaneously set on FLIPR. After the above-mentioned pretreatment, changes in the intracellular calcium concentration after addition of various test samples were measured by FLIPR.
A general note: Calcium flux is commonly read through the fluorescence of an indicator in the cells.

For assay [2], the target named is T2, human GPR40 (Homo sapiens, UniProt O14842).
T2 construct: expressed in transfected cells; host or cells: CHO cell line CHO-hGPR40 No. 104 (pAKKO-111 vector)
T2 sequence (O14842 whole entry): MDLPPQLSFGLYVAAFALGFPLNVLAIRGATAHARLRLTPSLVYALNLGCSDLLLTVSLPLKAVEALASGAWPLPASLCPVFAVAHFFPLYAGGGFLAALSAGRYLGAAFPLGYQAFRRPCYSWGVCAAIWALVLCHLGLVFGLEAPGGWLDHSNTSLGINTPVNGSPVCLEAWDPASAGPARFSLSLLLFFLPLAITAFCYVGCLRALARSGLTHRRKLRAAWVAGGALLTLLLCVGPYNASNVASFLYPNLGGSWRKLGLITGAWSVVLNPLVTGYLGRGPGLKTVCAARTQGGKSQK
In words: Effect of regulation of GPR40 receptor function (agonistic effect), intracellular calcium by FLIPR. Format: cell-based. To be noted: CHO cell line (No. 104) expressing human GPR40, fluorescence intensity at 30 sec after start of reaction. As for the experimental part: CHO cell line (No. 104) made to express human GPR40 was diluted such that 3×10^4 cells/100 μL were contained, dispensed to a black walled 96-well plate (Costar) at 100 μL per well, and incubated overnight in a CO2 incubator. The changes in the intracellular calcium concentration were measured using FLIPR (Molecular Device). The method is described in the following.
Fluo-3AM (DOJIN) (50 μg) was dissolved in 21 μl DMSO (DOJIN), and an equal amount of 20% pluronic acid (Molecular Probes) was added and mixed, and the mixture was added to 10.6 ml of an assay buffer [prepared by adding 20 ml of 1M HEPES (pH 7.4) (DOJIN) to 1 L of HBSS (Invitrogen), and adding a mixed solution (10 ml) obtained by dissolving probenecid (Sigma) (710 mg) in 1N NaOH (5 ml) and adding and mixing with the above-mentioned HBSS/HEPES solution (5 ml)] supplemented with 105 μl of fetal calf serum to give a fluorescence dye solution. The medium in the cell plate was removed, a fluorescence dye solution was immediately dispensed at 100 μl per well, and incubated in a CO2 incubator for 1 hr to incorporate fluorescence dye into the cell. The incubated cells were washed with the above-mentioned assay buffer. The compound to be added to the cell was diluted with the assay buffer to each concentration and dispensed to a test sample plate. After the above-mentioned pretreatment, changes in the intracellular calcium concentration after addition of the compound was measured by FLIPR, and the agonistic effect was examined. EC50 value was calculated from a dose response curve based on the changes in the fluorescence intensity value at 30 sec after the start of the reaction.

For assay [3], the system named is mouse pancreatic β cell line MIN6. The assay can be described thus: Promotion of insulin secretion from MIN6 (insulin immunoassay). To be noted: MIN6, KRBH with 22 mM glucose, 90 min. In kind it is cell-based. How it is done:
(§1) Mouse pancreatic β cell line MIN6 cultured in a flask was detached with PBS containing 2.5 mM EDTA, and seeded and incubated in a 96 well plate for 2 days. The medium used was obtained by adding 15% fetal bovine serum (ThermoTrace), […] 2-mercaptoethanol (Invitrogen), 20 mM HEPES pH 7.3, 100 U/ml penicillin and 100 μg/ml streptomycin to Dulbecco's Modified Eagle Medium (DMEM, Invitrogen) containing 4.5 g/l of glucose. The cells were washed twice with modified Krebs-Ringer bicarbonate buffer (KRBH, 116 mM NaCl, 4.7 mM KCl, 1.2 mM KH2PO4, 1.2 mM MgSO4, 2.5 mM CaCl2, 25 mM NaHCO3, 24 mM HEPES pH 7.3) and preincubated at 37° C. under 5% CO2 conditions for 30 min. Fatty acid diluted and prepared with a buffer obtained by adding 22 mM glucose to the above-mentioned KRBH was added to the cell after preincubation and the cells were incubated at 37° C. under 5% CO2 conditions for 90 min. After incubation, the cell supernatant was recovered and cryopreserved. The insulin content of the supernatant was measured using a commercially available insulin immunoassay kit (Amersham Pharmacia Biotech).
as §1, with “(KBH,” for “(KRBH,”, “The compound” for “Fatty acid”

Assay [4] relates to siRNA-introduced MIN6 cell. The assay can be described thus: Insulin secretion enhancing activity of fatty acid in siRNA-introduced MIN6. Format: cell-based, mouse. How it is done:
The expression amount of mouse GPR40-GFP was detected by the following enzyme immunoassay. The culture supernatant was discarded, washed with HBSS (Invitrogen), fixed with 0.01% glutaraldehyde (Wako Pure Chemical Industries, Ltd.) for 5 min., and blocked with PBS (TAKARA SHUZO) containing 2% BSA. 500-fold diluted anti-GFP monoclonal antibody 3E6 (NIPPON GENE CO., LTD.) was added and the cells were incubated at room temperature for 2 hrs., washed and 500-fold diluted HRP-labeled anti-mouse IgG antibody (ICN) was added, and the cells were incubated at room temperature for 2 hrs. After washing, TMB microwell peroxydase substrate (Funakoshi) was added and, after incubation for 30 min., sulfuric acid was added to stop the color developing reaction, and the absorbance at 450 nm was measured.
as §1
Insulin secretion enhancing activity in MIN6 cell, into which m40i103 was introduced using HVJ Envelope VECTOR KIT GenomONE based on the method of Experimental Example 5, was examined. The insulin secretion enhancing activity by fatty acid was examined by the method of Experimental Example 6.

T1 sequence (O14842 whole entry): as above

For the compound `CCCCCCCCC#CCC#CCC#CCCCC(=O)O` [5.8.11-eicosatriynoic acid], the “response (increase in intracellular calcium concentration) of CHO-K1 cell expressing the GPR40 receptor” value in assay [1] is on record as “specifically responds”.

As to `CCCCCC#CCC#CCC#CCC#CCCCC(=O)O` [5.8.11.14-eicosatetraynoic acid], the “response (increase in intracellular calcium concentration) of CHO-K1 cell expressing the GPR40 receptor” value in assay [1] is given as “specifically responds”.

For orientation: EC50 means the concentration that produces a half-maximal response. As for `O=C(O)CCc1ccc(OC2CCCc3ccccc32)cc1` (stereo not shown) [Example 2, 4-[(1,2,3,4-tetrahydronaphthalen-1-yl)oxy]benzenepropanoic acid], the EC50 in assay [2] came to 0.17 µM.

Take `O=C(O)CCc1ccc(OCc2ccc(OCc3ccccc3)cc2)cc1` [Example 6, 4-[[4-(phenylmethoxy)phenyl]methoxy]benzenepropanoic-acid]: the EC50 in assay [2] is 0.16 µM.

For `O=C(O)CCc1ccc(OCc2ccc(-c3ccccc3)cc2)cc1` [Example 7, 4-([1,1′-biphenyl]-4-ylmethoxy)benzenepropanoic acid], the EC50 in assay [2] stood at 0.13 µM.

For the compound `O=C(O)CCc1ccc(OCc2ccccc2)cc1` [Reference Example 2, 4-(phenylmethoxy)benzenepropanoic acid], the 50% effective concentration (EC50) in assay [2] was 0.32 µM.

On to `O=C(O)CCc1ccc(OCCCc2ccccc2)cc1` [Reference Example 6, 4-(3-phenylpropoxy)benzenepropanoic acid], for which, in assay [2], the concentration giving a half-maximal response (EC50) is 0.46 µM.

As to `CN(Cc1ccc(C(=O)Nc2ccc(CCC(=O)O)cc2)cc1)c1nc(-c2ccccc2)cs1` [Reference Example 15, 4-[[4-[[methyl(4-phenyl-2-thiazolyl)amino]methyl]benzoyl]amino]benzenepropanoic acid], in assay [2], the EC50 was found to be 1.2 µM.

For `CCCCC/C=C\C/C=C\C/C=C\C/C=C\CCCCCC(=O)O` [adrenic acid], in assay [1], the “response (increase in intracellular calcium concentration) of CHO-K1 cell expressing the GPR40 receptor” value is listed as “specifically responds”.

As for `CCCCC/C=C\C/C=C\C/C=C\C/C=C\CCCC(=O)O` [arachidonic acid], the “insulin secretion enhancing activity” value in assay [3] is listed as “significant insulin secretion enhancing activity”. Moreover, in assay [1], the “response (increase in intracellular calcium concentration) of CHO-K1 cell expressing the GPR40 receptor” value was “specifically responds” and the “activity in intracellular calcium ion mobilization assay using CHO cell expressing GPR40 (GPR40 agonistic activity)” value is reported as “remarkable activity”.

For `CCCC(=O)O` [butyric acid], the “insulin secretion enhancing activity” value in assay [3] was “did not show a significant insulin secretion enhancing activity”. In assay [1], the “activity in intracellular calcium ion mobilization assay using CHO cell expressing GPR40 (GPR40 agonistic activity)” value was “no GPR40 agonistic activity”.

Regarding `CC(C)=CCCC(C)=CCCC(C)=CC(=O)O` [farnesoic acid], the “response (increase in intracellular calcium concentration) of CHO-K1 cell expressing the GPR40 receptor” value in assay [1] was “specifically responds”.

In the case of `CCCCCCCCCCCC(=O)O` [lauric acid], in assay [1], the “response (increase in intracellular calcium concentration) of CHO-K1 cell expressing the GPR40 receptor” value is reported as “specifically responds”.

Take `CCCCC/C=C\C/C=C\CCCCCCCC(=O)O` [linoleic acid]: the results for the “insulin secretion enhancing activity of fatty acid” value in assay [4] (MIN6 into which GPR40 specific siRNA m40i103 was introduced) and in assay [4] (MIN6 into which random sequence Scramble II duplex siRNA was introduced) were “no longer showed insulin secretion enhancing activity” and “retention of the insulin secretion enhancing activity”, respectively. For the same compound, the “insulin secretion enhancing activity” value in assay [3] was “significant insulin secretion enhancing activity”. Also, the “response (increase in intracellular calcium concentration) of CHO-K1 cell expressing the GPR40 receptor” value in assay [1] is recorded as “specifically responds”. The “activity in intracellular calcium ion mobilization assay using CHO cell expressing GPR40 (GPR40 agonistic activity)” value in assay [1] is reported as “remarkable activity”.

Take `CCCCC/C=C\C/C=C\CCCCCCCC(=O)OC` [methyl linolate]: the “insulin secretion enhancing activity” value in assay [3] is “did not show a significant insulin secretion enhancing activity”. Further, the “activity in intracellular calcium ion mobilization assay using CHO cell expressing GPR40 (GPR40 agonistic activity)” value in assay [1] is recorded as “no GPR40 agonistic activity”.

As to `CC/C=C\C/C=C\C/C=C\CCCCCCCC(=O)O` [α-linolenic acid], the “insulin secretion enhancing activity” value in assay [3] is “significant insulin secretion enhancing activity”. Also, the “activity in intracellular calcium ion mobilization assay using CHO cell expressing GPR40 (GPR40 agonistic activity)” value in assay [1] is “remarkable activity”.

Consider docosatrienoic acid, for which, in assay [1], the “response (increase in intracellular calcium concentration) of CHO-K1 cell expressing the GPR40 receptor” value was “specifically responds”.

For eicosadienoic acid, the “response (increase in intracellular calcium concentration) of CHO-K1 cell expressing the GPR40 receptor” value in assay [1] is listed as “specifically responds”.

With eicosatrienoic acid, in assay [1], the “response (increase in intracellular calcium concentration) of CHO-K1 cell expressing the GPR40 receptor” value is “specifically responds”.
